One may read the EC50 as the midpoint of the concentration-response curve. For orientation: Emax means the size of the effect at its maximum, as opposed to the concentration needed.

This assay deals with human GLP-1R (Homo sapiens, UniProt P43220, G168S). Put plainly: CHO GLP-1R Clone H6—Assay 1: HTRF cAMP cell-based functional agonist assay (high GLP-1R density). The note with it: for EC50: read-out: Assay 1 EC50, CHO GLP-1R Clone H6, cAMP HTRF, geometric mean; for Emax: read-out: Assay 1 Emax (%), CHO GLP-1R Clone H6, relative to saturating concentration of full agonist GLP-1 (1 μM), arithmetic mean. On the technique in general: TR-FRET usually uses a lanthanide donor and a delayed reading to cut background.
Chain of human GLP-1R (P43220 24-463 G168S limits assumed): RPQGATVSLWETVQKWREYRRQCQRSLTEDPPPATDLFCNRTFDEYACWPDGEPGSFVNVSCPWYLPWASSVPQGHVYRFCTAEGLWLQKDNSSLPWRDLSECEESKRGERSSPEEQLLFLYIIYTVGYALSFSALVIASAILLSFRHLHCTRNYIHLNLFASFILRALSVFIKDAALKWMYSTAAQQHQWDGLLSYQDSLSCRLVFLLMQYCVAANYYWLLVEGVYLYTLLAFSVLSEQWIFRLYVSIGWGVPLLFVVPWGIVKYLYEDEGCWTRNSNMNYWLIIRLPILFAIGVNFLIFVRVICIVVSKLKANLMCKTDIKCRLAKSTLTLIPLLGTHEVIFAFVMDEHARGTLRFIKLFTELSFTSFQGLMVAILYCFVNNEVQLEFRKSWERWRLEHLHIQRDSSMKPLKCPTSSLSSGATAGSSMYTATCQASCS

Bounds are passed on as bounds.

For `CCc1noc(Cn2c(CN3CCC(c4cccc(OCc5ccc(Cl)cc5F)n4)CC3)nc3ccc(C(=O)O)cc32)n1` [Example 10A-52], the EC50 stood at 1300 nM and the Emax came to 79%.
The corresponding values for `CC1(Cn2c(CN3CCC(c4cccc(OCc5ccc(Cl)cc5F)n4)CC3)nc3ccc(C(=O)O)cc32)CCO1` (stereo not shown) [Example 10A-53] are 3.2 nM and 68%.
On to `O=C(O)c1ccc2nc(CN3CCC(c4cccc(OCc5ccc(Cl)cc5F)n4)CC3)n(Cc3cnoc3)c2c1` [Example 10A-68], for which the EC50 was 140 nM and the Emax was determined as 76%.
Take `O=C(O)c1ccc2nc(CN3CCC(c4cccc(OCc5ccc(Cl)cc5F)n4)CC3)n(Cc3ncon3)c2c1` [Example 10A-70]: the EC50 was 5 nM and the Emax stood at 65%.
For `O=C(O)c1ccc2nc(CN3CCC(c4cccc(OCc5ccc(Cl)cc5F)n4)CC3)n(C[C@H]3CCOC3)c2c1` [Example 10A-72, 2-[(4-{6-[(4-chloro-2-fluorobenzyl)oxy]pyridin-2-yl}piperidin-1-yl)methyl]-1-[(3R)-tetrahydrofuran-3-ylmethyl]-1H-benzimidazole-6-carboxylic acid], in that order: 3.4 nM and 79%.
As for `CN1CCC1Cn1c(CN2CCC(c3cccc(OCc4ccc(Cl)cc4F)n3)CC2)nc2ccc(C(=O)O)cc21` (stereo not shown) [Example 10A-79], the EC50 was 33 nM and the maximum response (Emax) came to 80%.
For the compound `Cn1cnc(CCn2c(CN3CCC(c4cccc(OCc5ccc(Cl)cc5F)n4)CC3)nc3ccc(C(=O)O)cc32)c1` [Example 11A-01, 2-[(4-{6-[(4-chloro-2-fluorobenzyl)oxy]pyridin-2-yl}piperidin-1-yl)methyl]-1-[2-(1-methyl-1H-imidazol-4-yl)ethyl]-1H-benzimidazole-6-carboxylic acid], the EC50 is more than 10000 nM and the Emax worked out at 85%.
As to `O=C(O)c1ccc2nc(CN3CCC(c4cccc(OCc5ccc(Cl)cc5F)n4)CC3)n(Cc3ccc(Cl)cn3)c2c1` [Example 11A-02, 2-[(4-{6-[(4-chloro-2-fluorobenzyl)oxy]pyridin-2-yl}piperidin-1-yl)methyl]-1-[(5-chloropyridin-2-yl)methyl]-1H-benzimidazole-6-carboxylic acid], the EC50 is more than 15000 nM and the Emax was 100%.
With `CCN1CCC(Cn2c(CN3CCC(c4cccc(OCc5ccc(Cl)cc5F)n4)CC3)nc3ccc(C(=O)O)cc32)C1` (stereo not shown) [Example 11A-03, 2-[(4-{6-[(4-chloro-2-fluorobenzyl)oxy]pyridin-2-yl}piperidin-1-yl)methyl]-1-[(1-ethylpyrrolidin-3-yl)methyl]-1H-benzimidazole-6-carboxylic acid], the EC50 is more than 16000 nM and the Emax was found to be 100%.
As to `CN1CCCC(Cn2c(CN3CCC(c4cccc(OCc5ccc(Cl)cc5F)n4)CC3)nc3ccc(C(=O)O)cc32)C1` (stereo not shown) [Example 11A-04, 2-[(4-{6-[(4-chloro-2-fluorobenzyl)oxy]pyridin-2-yl}piperidin-1-yl)methyl]-1-[(1-methylpiperidin-3-yl)methyl]-1H-benzimidazole-6-carboxylic acid], the EC50 is more than 19000 nM and the Emax was 100%.
Regarding `O=C(O)c1ccc2nc(CN3CCC(c4cccc(OCc5ccc(Cl)cc5F)n4)CC3)n(CCC3CCCCO3)c2c1` (stereo not shown) [Example 11A-05, 2-[(4-{6-[(4-chloro-2-fluorobenzyl)oxy]pyridin-2-yl}piperidin-1-yl)methyl]-1-[2-(tetrahydro-2H-pyran-2-yl)ethyl]-1H-benzimidazole-6-carboxylic acid], the EC50 was more than 20000 nM.
Regarding `CC(C)c1cc(Cn2c(CN3CCC(c4cccc(OCc5ccc(Cl)cc5F)n4)CC3)nc3ccc(C(=O)O)cc32)on1` [Example 11A-06, 2-[(4-{6-[(4-chloro-2-fluorobenzyl)oxy]pyridin-2-yl}piperidin-1-yl)methyl]-1-{[3-(propan-2-yl)-1,2-oxazol-5-yl]methyl}-1H-benzimidazole-6-carboxylic acid], the EC50 is more than 20000 nM.
Same read-out and setting: then `CN1CCC(CCn2c(CN3CCC(c4cccc(OCc5ccc(Cl)cc5F)n4)CC3)nc3ccc(C(=O)O)cc32)CC1` [Example 11A-07, 2-[(4-{6-[(4-chloro-2-fluorobenzyl)oxy]pyridin-2-yl}piperidin-1-yl)methyl]-1-[2-(1-methylpiperidin-4-yl)ethyl]-1H-benzimidazole-6-carboxylic acid], with more than 20000 nM.
Turning to `CN1CCC(Cn2c(CN3CCC(c4cccc(OCc5ccc(Cl)cc5F)n4)CC3)nc3ccc(C(=O)O)cc32)CC1` [Example 11A-08, 2-[(4-{6-[(4-chloro-2-fluorobenzyl)oxy]pyridin-2-yl}piperidin-1-yl)methyl]-1-[(1-methylpiperidin-4-yl)methyl]-1H-benzimidazole-6-carboxylic acid], the EC50 is more than 20000 nM.
As for `CN1CCCC1CCn1c(CN2CCC(c3cccc(OCc4ccc(Cl)cc4F)n3)CC2)nc2ccc(C(=O)O)cc21` (stereo not shown) [Example 11A-09, 2-[(4-{6-[(4-chloro-2-fluorobenzyl)oxy]pyridin-2-yl}piperidin-1-yl)methyl]-1-[2-(1-methylpyrrolidin-2-yl)ethyl]-1H-benzimidazole-6-carboxylic acid], the EC50 was more than 20000 nM.
Still for that read-out and setting: then `CN1CCCCC1Cn1c(CN2CCC(c3cccc(OCc4ccc(Cl)cc4F)n3)CC2)nc2ccc(C(=O)O)cc21` (stereo not shown) [Example 11A-10, 2-[(4-{6-[(4-chloro-2-fluorobenzyl)oxy]pyridin-2-yl}piperidin-1-yl)methyl]-1-[(1-methylpiperidin-2-yl)methyl]-1H-benzimidazole-6-carboxylic acid], with more than 20000 nM.
Still for that read-out and setting: as for `CN1CCOC(CCn2c(CN3CCC(c4cccc(OCc5ccc(Cl)cc5F)n4)CC3)nc3ccc(C(=O)O)cc32)C1` (stereo not shown) [Example 11A-11, 2-[(4-{6-[(4-chloro-2-fluorobenzyl)oxy]pyridin-2-yl}piperidin-1-yl)methyl]-1[2-(4-methylmorpholin-2-yl)ethyl]-1H-benzimidazole-6-carboxylic acid], the figure is more than 20000 nM; as for `COCCN1CCC(Cn2c(CN3CCC(c4cccc(OCc5ccc(Cl)cc5F)n4)CC3)nc3ccc(C(=O)O)cc32)CC1` [Example 11A-12, 2-[(4-{6-[(4-chloro-2-fluorobenzyl)oxy]pyridin-2-yl}piperidin-1-yl)methyl]-1-{[1-(2-methoxyethyl)piperidin-4-yl]methyl}-1H-benzimidazole-6-carboxylic acid], more than 20000 nM.
For `COCCN1CCCC(Cn2c(CN3CCC(c4cccc(OCc5ccc(Cl)cc5F)n4)CC3)nc3ccc(C(=O)O)cc32)C1` (stereo not shown) [Example 11A-13, 2-[(4-{6-[(4-chloro-2-fluorobenzyl)oxy]pyridin-2-yl}piperidin-1-yl)methyl]-1-{[1-(2-methoxyethyl)piperidin-3-yl]methyl}-1H-benzimidazole-6-carboxylic acid], the EC50 was more than 20000 nM.
With `Cn1cc(CCn2c(CN3CCC(c4cccc(OCc5ccc(Cl)cc5F)n4)CC3)nc3ccc(C(=O)O)cc32)cn1` [Example 11A-32, 2-[(4-{6-[(4-chloro-2-fluorobenzyl)oxy]pyridin-2-yl}piperidin-1-yl)methyl]-1-[2-(1-methyl-1H-pyrazol-4-yl)ethyl]-1H-benzimidazole-6-carboxylic acid], the EC50 amounted to 87 nM and the Emax was determined as 83%.

The values are drawn from patent US10208019B2, “GLP-1 receptor agonists and uses thereof” (Pfizer Inc., priority 2016, dated 2019).
